Data taken from ChEMBL document CHEMBL1201862, “PubChem BioAssay data set” (2004).
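Five compound concentrations were applied to cells in 96-well plates for 48 hours; endpoints were derived by simple linear interpolation of the resulting dose-response curve. Here, GI50 denotes the concentration required for 50% inhibition of growth.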 Activity calls are given as the source filed them. Rule as the data show it: active = GI50 up to about 1.1 µM and inactive = higher.

Legend:
Experiment in all cases: NCI anticancer screen, dose series, 48 h
HT-29 = tested on: HT-29
CCRF-CEM = tested on: CCRF-CEM
NCI-H23 = tested on: NCI-H23
OVCAR-5 = tested on: OVCAR-5
SK-MEL-28 = tested on: SK-MEL-28
HOP-62 = tested on: HOP-62
RPMI-8226 = tested on: RPMI-8226
786-0 = tested on: 786-0
SF-295 = tested on: SF-295
SF-268 = tested on: SF-268
ACHN = tested on: ACHN
SF-539 = tested on: SF-539
M14 = tested on: M14
UO-31 = tested on: UO-31
K562 = tested on: K562
IGROV-1 = tested on: IGROV-1
DMS-273 = tested on: DMS-273
SN12C = tested on: SN12C
Malme-3M = tested on: Malme-3M
PC-3 = tested on: PC-3

Measured: GI50

CC(=O)Oc1ccc2c(=O)c(C(C)=O)coc2c1
inactive: HT-29 > 100 µM | CCRF-CEM > 100 µM | NCI-H23 > 100 µM | OVCAR-5 > 100 µM | SK-MEL-28 > 100 µM | HOP-62 > 100 µM | RPMI-8226 > 100 µM | 786-0 > 100 µM | SF-295 > 100 µM | SF-268 > 100 µM | ACHN > 100 µM | SF-539 > 100 µM | M14 > 100 µM | UO-31 > 100 µM | K562 > 100 µM | IGROV-1 > 100 µM | DMS-273 > 100 µM

COc1ccc2c(c1OCC(=O)O)C(=O)C(CCC(=O)O)CC2 (configuration not stated)
inactive: HT-29 > 100 µM | CCRF-CEM > 100 µM | NCI-H23 > 100 µM | SK-MEL-28 > 100 µM | HOP-62 > 100 µM | RPMI-8226 > 100 µM | 786-0 > 100 µM | SF-295 > 100 µM | SN12C > 100 µM | ACHN > 100 µM | SF-539 > 100 µM | M14 > 100 µM | IGROV-1 > 100 µM | DMS-273 > 100 µM

O=C1C(=O)N(C2C3CC4CC(C3)CC2C4)C(=O)C(=O)C1c1nc2ccccc2o1 (configuration not stated)
inactive: HT-29 20.7 µM | NCI-H23 41.6 µM | OVCAR-5 23.2 µM | SK-MEL-28 > 100 µM | HOP-62 > 100 µM | RPMI-8226 52.4 µM | 786-0 26.3 µM | SF-295 > 100 µM | SF-268 92.9 µM | SN12C 98.4 µM | Malme-3M 36 µM | ACHN > 100 µM | SF-539 90.6 µM | M14 83 µM | UO-31 > 100 µM | K562 21.1 µM | IGROV-1 42.3 µM | DMS-273 > 100 µM

Cc1ccc(/C=N/C23CC4CC(CC(C4)C2)C3)cc1
inactive: HT-29 > 100 µM | NCI-H23 > 100 µM | OVCAR-5 > 100 µM | SK-MEL-28 > 100 µM | HOP-62 > 100 µM | RPMI-8226 > 100 µM | 786-0 > 100 µM | SF-295 > 100 µM | SF-268 > 100 µM | SN12C > 100 µM | Malme-3M 25.1 µM | ACHN > 100 µM | SF-539 > 100 µM | M14 > 100 µM | K562 > 100 µM | IGROV-1 > 100 µM | DMS-273 > 100 µM

Cc1ccc(S(=O)(=O)c2ccc(N)cc2)cc1
inactive: HT-29 > 100 µM | CCRF-CEM > 100 µM | NCI-H23 > 100 µM | OVCAR-5 > 100 µM | SK-MEL-28 > 100 µM | HOP-62 > 100 µM | RPMI-8226 > 100 µM | 786-0 > 100 µM | SF-295 > 100 µM | Malme-3M > 100 µM | ACHN > 100 µM | SF-539 > 100 µM | M14 > 100 µM | UO-31 > 100 µM | K562 > 100 µM | IGROV-1 > 100 µM | DMS-273 > 100 µM

COc1cccc(NC(=O)CSc2nnc(-c3ccc(/N=C\c4ccc(Cl)cc4)cc3)o2)c1
inactive: HT-29 15.6 µM | CCRF-CEM 26.6 µM | NCI-H23 19.8 µM | SK-MEL-28 18.3 µM | HOP-62 31.6 µM | RPMI-8226 18.2 µM | 786-0 24.5 µM | SF-295 20.2 µM | SF-268 19.4 µM | SN12C 21.2 µM | Malme-3M 17.7 µM | ACHN 16.4 µM | M14 19.4 µM | UO-31 18.5 µM | K562 32.6 µM | DMS-273 > 10 µM

CCC(O)C1Cc2c(C)cc3c(c2O1)C(=O)c1ccccc1C3=O (configuration not stated)
inactive: HT-29 39.4 µM | CCRF-CEM 31.3 µM | NCI-H23 33.3 µM | OVCAR-5 72.3 µM | SK-MEL-28 49.2 µM | HOP-62 35.9 µM | RPMI-8226 27.9 µM | 786-0 25.8 µM | SF-295 29.6 µM | SF-268 25.1 µM | SN12C 35.3 µM | Malme-3M 34.6 µM | ACHN 27.8 µM | M14 40.1 µM | UO-31 21 µM | K562 29.8 µM | IGROV-1 31.5 µM | DMS-273 28.7 µM

CC(C)(C)OC(=O)NCC(=O)OCc1ccccc1
inactive: HT-29 > 100 µM | CCRF-CEM > 100 µM | NCI-H23 > 100 µM | OVCAR-5 > 100 µM | SK-MEL-28 > 100 µM | HOP-62 > 100 µM | 786-0 > 100 µM | SF-295 > 100 µM | SF-268 > 100 µM | SN12C > 100 µM | Malme-3M > 100 µM | ACHN > 100 µM | SF-539 > 100 µM | M14 > 100 µM | UO-31 > 100 µM | K562 > 100 µM | IGROV-1 > 100 µM | DMS-273 > 100 µM

Clc1cc(C(c2cc(Cl)sc2Cl)c2cc(Cl)sc2Cl)c(Cl)s1
inactive: HT-29 > 100 µM | CCRF-CEM > 100 µM | NCI-H23 > 100 µM | OVCAR-5 > 100 µM | SK-MEL-28 > 100 µM | HOP-62 > 100 µM | PC-3 > 100 µM | RPMI-8226 > 100 µM | 786-0 > 100 µM | SF-295 > 100 µM | SF-268 > 100 µM | SN12C > 100 µM | Malme-3M 74.1 µM | ACHN > 100 µM | SF-539 > 100 µM | M14 > 100 µM | UO-31 > 100 µM | K562 > 100 µM | IGROV-1 > 100 µM

CCOC(=O)c1c(O)nc(O)c(CC)c1C
inactive: HT-29 > 100 µM | CCRF-CEM > 100 µM | NCI-H23 > 100 µM | OVCAR-5 > 100 µM | SK-MEL-28 > 100 µM | HOP-62 > 100 µM | PC-3 > 100 µM | RPMI-8226 > 100 µM | 786-0 > 100 µM | SF-295 > 100 µM | SF-268 > 100 µM | SN12C > 100 µM | Malme-3M > 100 µM | ACHN > 100 µM | SF-539 67 µM | M14 > 100 µM | UO-31 > 100 µM | K562 > 100 µM | IGROV-1 > 100 µM

O=C(/C=C/c1ccc(O)c(O)c1)OCCCOC(=O)/C=C/c1ccc(O)c(O)c1
inactive: HT-29 22.3 µM | CCRF-CEM 2.63 µM | NCI-H23 20.9 µM | OVCAR-5 27.4 µM | SK-MEL-28 36.6 µM | HOP-62 11.7 µM | PC-3 30.5 µM | RPMI-8226 17.4 µM | 786-0 20.2 µM | SF-295 18 µM | SF-268 23.9 µM | SN12C 28.1 µM | Malme-3M 43.3 µM | ACHN 16.2 µM | SF-539 41.9 µM | M14 19.2 µM | UO-31 7.13 µM | K562 22.3 µM | IGROV-1 13.3 µM
